Measurements as given in patent US20060149064A1, “Process to prepare malayamycin derivatives” (priority 2003, published 2006).

What was measured:
[1] = tested on: Blumeria graminis f. sp. tritici (ERYSGT); assay: Foliar protectant test against Blumeria graminis f. sp. tritici (ERYSGT) on wheat; assay type: in vivo; details: 100 ppm foliar spray on wheat; inoculated 6 hours after application; banded assessment
Protocol: (§1) This Example illustrates the fungicidal properties of certain of the novel compounds of formula (I). The compounds were tested against a variety of foliar fungal diseases of plants. The technique employed was as follows. Plants were grown on an artificial, cellulose based growing medium. The test compounds were individually diluted in reverse osmosis water to a final concentration of 100 ppm in water (that is, 1 mg of compound in a final volume of 10 ml) immediately before use. TWEEN 20 (at a final concentration of 0.05% by volume) was added with the water to improve retention of the spray deposit. TWEEN is a registered trade mark. The compounds were applied to the foliage of the test plants by spraying the plant to maximum droplet retention. […] After chemical application and inoculation, the plants were incubated under high humidity conditions (except those inoculated with Blumeria graminis f. sp. tritici) and then put into an appropriate environment to allow infection to proceed until the disease was ready for assessment. […] However, each individual disease was assessed after the same time period for all compounds. […] The disease level present (the percentage leaf area covered by actively sporulating disease) was assessed visually. For each treatment, the assessed values for all its replicates were meaned to provide mean disease values. Untreated control plants were assessed in the same manner. […]

[2] = tested on: Puccinia triticina (PUCCRT); assay: Foliar protectant test against Puccinia triticina (PUCCRT) on wheat; assay type: in vivo; details: 100 ppm foliar spray on wheat; inoculated one day after application; banded assessment
Protocol: as §1

[3] = tested on: Stagonospora nodorum (LEPTNO); assay: Foliar protectant test against Stagonospora nodorum (LEPTNO) on wheat; assay type: in vivo; details: 100 ppm foliar spray on wheat; inoculated one day after application; banded assessment
Protocol: as §1

melting point | SMILES | PRCO (percentage Disease Reduction from Control) ERYSGT 6 hour Protectant [1] | PRCO (percentage Disease Reduction from Control) PUCCRT 1 day Protectant [2] | PRCO (percentage Disease Reduction from Control) LEPTNO 1 day Protectant [3]
– | NC(=O)N[C@H]1[C@H]2O[C@@H](c3c[nH]c(=O)[nH]c3=O)C(O)[C@@H]2OC[C@H]1O (stereo partly shown) [compound 3, desmethylmalayamycin A] | 0 | 100 | 100
– | CO[C@H]1CO[C@H]2C(O)[C@H](c3c[nH]c(=O)[nH]c3=O)O[C@@H]2[C@@H]1NC(N)=O (stereo partly drawn) [compound 2, 6-epi-malayamycin A] | 50 | 100 | 45
158 °C (dec.) | CO[C@@H]1CO[C@H]2C(O)[C@H](c3c[nH]c(=O)[nH]c3=O)O[C@@H]2[C@@H]1NC(N)=O (stereo partly shown) [Compound No. 1, malayamycin A] | – | – | –
